From patent publication US8232406B2, “c-MET protein kinase inhibitors” (Vertex Pharmaceuticals Incorporated, priority 2006, dated 2012) come the findings set out here.

The assay deals with c-MET (Homo sapiens, UniProt P08581). Briefly: Ki determination for the inhibition of c-MET (standard radiometric 33P-ATP kinase assay, polyE4Y substrate). It counts as biochemical. Conditions: 1.0 nM c-Met, 35 μM ATP, 0.5 mg/mL polyE4Y, 20 min; competitive tight-binding fit. The method, boiled down:
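Ki obtained by fitting data to competitive tight-binding inhibition kinetics. c-Met at 1.0 nM phosphorylated polyE4Y (0.5 mg/mL) with 35 μM 33P-ATP for 20 min in pH 7.5 HEPES buffer with MgCl2, NaCl, BSA and DTT. Incorporated label measured by scintillation after TCA precipitation on filters.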

c-MET, sequence (P08581 25-1390): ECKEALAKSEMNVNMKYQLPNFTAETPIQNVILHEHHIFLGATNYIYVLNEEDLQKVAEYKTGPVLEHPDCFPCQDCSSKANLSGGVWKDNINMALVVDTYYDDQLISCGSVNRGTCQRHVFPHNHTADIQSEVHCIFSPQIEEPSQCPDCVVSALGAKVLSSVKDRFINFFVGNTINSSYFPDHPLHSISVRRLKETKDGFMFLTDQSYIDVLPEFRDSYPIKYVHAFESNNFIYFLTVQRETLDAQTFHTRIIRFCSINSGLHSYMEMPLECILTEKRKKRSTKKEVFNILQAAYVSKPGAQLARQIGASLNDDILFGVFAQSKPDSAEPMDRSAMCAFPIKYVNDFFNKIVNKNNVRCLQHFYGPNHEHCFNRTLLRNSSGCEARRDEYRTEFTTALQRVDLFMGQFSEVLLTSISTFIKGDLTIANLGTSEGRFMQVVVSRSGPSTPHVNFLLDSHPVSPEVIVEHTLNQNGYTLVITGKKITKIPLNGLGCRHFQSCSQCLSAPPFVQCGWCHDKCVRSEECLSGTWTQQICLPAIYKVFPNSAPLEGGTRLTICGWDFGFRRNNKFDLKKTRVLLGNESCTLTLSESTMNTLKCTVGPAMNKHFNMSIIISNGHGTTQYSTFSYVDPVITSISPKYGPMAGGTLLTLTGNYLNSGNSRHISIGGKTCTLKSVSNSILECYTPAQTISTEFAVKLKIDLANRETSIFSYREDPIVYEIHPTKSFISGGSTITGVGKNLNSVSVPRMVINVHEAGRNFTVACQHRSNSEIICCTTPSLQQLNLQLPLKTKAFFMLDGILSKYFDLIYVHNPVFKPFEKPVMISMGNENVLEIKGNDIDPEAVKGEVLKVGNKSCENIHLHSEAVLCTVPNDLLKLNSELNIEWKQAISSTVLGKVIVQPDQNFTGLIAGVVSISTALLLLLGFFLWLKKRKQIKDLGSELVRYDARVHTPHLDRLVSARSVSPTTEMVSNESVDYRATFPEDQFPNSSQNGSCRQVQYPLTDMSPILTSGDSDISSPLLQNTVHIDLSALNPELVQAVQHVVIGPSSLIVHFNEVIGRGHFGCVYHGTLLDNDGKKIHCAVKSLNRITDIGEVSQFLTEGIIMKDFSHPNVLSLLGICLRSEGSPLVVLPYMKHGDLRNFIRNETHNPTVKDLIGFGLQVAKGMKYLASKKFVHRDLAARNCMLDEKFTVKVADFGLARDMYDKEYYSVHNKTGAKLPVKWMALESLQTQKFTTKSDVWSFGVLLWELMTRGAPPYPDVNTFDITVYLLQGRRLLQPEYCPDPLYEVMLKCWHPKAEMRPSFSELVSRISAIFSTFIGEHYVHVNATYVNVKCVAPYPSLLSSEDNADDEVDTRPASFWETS

As usually defined, the Ki is a dissociation constant, usually derived from enzyme kinetics or from competition with a known ligand. Low readings indicate a stronger hold on the target, high ones a looser hold on the target. Take `Nc1ncc(-c2nc3c(s2)CNCC3)cc1-c1nnnn1-c1cccc(Cl)c1Cl` [I-A-467]: the Ki fell in the range of 100 to 1000 nM.
The same measure for `Nc1ncc(-c2cnn(C3CNC3)c2)cc1-c1nnnn1-c1cccc(F)c1F` [I-A-426]: ≤ 100 nM.
In the case of `Nc1ncc(-c2ccc(NC(=O)c3cccs3)cc2)cc1-c1nnnn1-c1cccc(F)c1F` [I-A-161], the Ki lay in the range of 100 to 1000 nM.
For the compound `Nc1ncc(C2=CCN(C(=O)c3cccnc3)CC2)cc1-c1nnnn1-c1cccc(F)c1F` [I-A-507], the Ki was ≤ 100 nM.
The same measure for `Nc1ncc(-c2ccccc2F)cc1-c1nnnn1-c1cccc(F)c1F` [I-A-313]: ≤ 100 nM; for `CN(C)Cc1ccc(-c2cnc(N)c(-c3nnnn3-c3c(F)ccc(Cl)c3F)c2)cc1` [I-A-377]: ≤ 100 nM.
The value for `CN(C)CC(=O)Nc1ccc(-c2cnc(N)c(-c3nnnn3-c3cccc(F)c3F)c2)cc1` [I-A-191] was ≤ 100 nM; that for `Nc1ncc(-c2cnn(C3CCNCC3)c2)cc1-c1nnnn1-c1c(Cl)cccc1Cl` [I-A-631] was ≤ 100 nM; that for `CN(C)Cc1ccc(-c2cnc(N)c(-c3nncn3-c3cccc(F)c3F)n2)cc1` [I-A-8] was ≤ 100 nM.
Compound `N#Cc1cc(-c2cnc(N)c(-c3nnnn3-c3cccc(F)c3F)c2)ccc1N1CCCC1` [I-A-336] displayed a Ki of 100 to 1000 nM.
The same measure for `CC(=O)Nc1ccc(-c2cnc(N)c(-c3nnnn3-c3cc(Cl)ccc3C)c2)cc1` [I-A-576]: 100 to 1000 nM.
The same measure for `NC(=O)c1ccc(-c2cnc(N)c(-c3nnnn3-c3cccc(F)c3F)c2)cc1` [I-A-245]: ≤ 100 nM.
The same measure for `CC(C)C(=O)Nc1ccc(-c2cnc(N)c(-c3nnnn3-c3cccc(F)c3F)c2)cc1` [I-A-193]: ≤ 100 nM; for `CC(C)N1CCC(n2cc(-c3cnc(N)c(-c4nnnn4-c4cccc(F)c4F)c3)cn2)CC1` [I-A-448]: ≤ 100 nM.
As to `Nc1ncc(-c2ccc(N3CCCC3)nc2)cc1-c1nnnn1-c1cccc(F)c1F` [I-A-64], the Ki is ≤ 100 nM.
The value for `Nc1ncc(-c2ccc(CN3CC[C@@H](O)C3)cc2)cc1-c1nnnn1-c1cccc(Cl)c1Cl` [I-A-119] was ≤ 100 nM.
The same measure for `Nc1ncc(-c2cccc(N3CCNCC3)c2)cc1-c1nnnn1-c1cccc(F)c1F` [I-A-414]: ≤ 100 nM; for `CC(=O)Nc1ccc(-c2cnc(N)c(-c3nnnn3-c3cc(F)ccc3F)c2)cc1` [I-A-581]: 100 to 1000 nM.
The value for `CC(=O)Nc1cccc(-c2cnc(N)c(-c3nnnn3-c3cccc(Cl)c3F)c2)c1` [I-A-344] was ≤ 100 nM.
Regarding `Nc1ncc(-c2cc3c(s2)CNCC3)cc1-c1nnnn1-c1cccc(F)c1F` [I-A-492, 3-(1-(2,3-Difluorophenyl)-1H-tetrazol-5-yl)-5-(4,5,6,7-tetrahydrothieno[2,3-c]pyridin-2-yl)pyridin-2-amine], the inhibition constant Ki was ≤ 100 nM.
As for `CS(=O)(=O)c1ccc(-c2cnc(N)c(-c3nncn3-c3cccc(F)c3F)n2)cc1` [I-A-32], the Ki was ≤ 100 nM.
The value for `CN(C)CCNC(=O)c1ccc(-c2cnc(N)c(-c3nnnn3-c3cccc(Cl)c3Cl)c2)cc1` [I-A-124] was ≤ 100 nM; that for `Nc1ncc(C2=CCN(C(=O)CC3CCOCC3)CC2)cc1-c1nnnn1-c1cccc(F)c1F` [I-A-516] was ≤ 100 nM; that for `Nc1ncc(-c2ccc(N3CCCC3)nc2)cc1-c1nnsc1-c1cccc(Cl)c1Cl` [I-C-4] was 100 to 1000 nM.
The same measure for `Nc1ncc(-c2ccc(NC(=O)NC3CCCC3)cc2)cc1-c1nnnn1-c1cccc(F)c1F` [I-A-333]: 100 to 1000 nM.
The same measure for `Nc1ncc(-c2cnn(C3CCNCC3)c2)cc1-c1nc2cc(F)ccc2n1-c1cccc(Cl)c1F` [I-D-19]: ≤ 100 nM; for `Nc1ncc(-c2ccc(CO)cc2)cc1-c1nnnn1-c1cccc(F)c1F` [I-A-232]: ≤ 100 nM; for `CN(CCC#N)Cc1ccc(-c2cnc(N)c(-c3nnnn3-c3cccc(F)c3F)c2)cc1` [I-A-148]: ≤ 100 nM.
Turning to `CN(C)CC(=O)N1CCC(n2cc(-c3cnc(N)c(-c4nnnn4-c4cccc(Cl)c4F)c3)cn2)CC1` [I-A-444], the Ki is ≤ 100 nM.
The value for `NCN1CCN(Cc2ccc(-c3cnc(N)c(-c4nnnn4-c4cccc(Cl)c4Cl)c3)cc2)CC1` [I-A-108] was ≤ 100 nM.
The same measure for `Nc1ncc(-c2nc3c(s2)CNCC3)cc1-c1nnnn1-c1cccc(F)c1F` [I-A-465]: 100 to 1000 nM; for `Cn1cc(-c2cccc(Cl)c2Cl)c(-c2cc(-c3cccnc3)cnc2N)n1` [I-B-16]: 100 to 1000 nM.
The value for `Nc1ncc(-c2ccc3c(c2)OCCO3)cc1-c1nnnn1-c1cccc(F)c1F` [I-A-235] was ≤ 100 nM.
Compound `Nc1ncc(-c2ccc(CN3CCCC3)cc2)cc1-c1nnc(O)n1-c1cccc(F)c1F` [I-A-362] returned a Ki of 100 to 1000 nM.
Turning to `Nc1ncc(-c2ccc(CN3CCC(N4CCCCC4)CC3)cc2)cc1-c1nnnn1-c1cccc(Cl)c1Cl` [I-A-98], the Ki was ≤ 100 nM.
The value for `Nc1ncc(-c2ccc3ncccc3c2)cc1-c1nnnn1-c1cccc(F)c1F` [I-A-321] was ≤ 100 nM.
The value for `COc1c(F)cccc1-n1nnnc1-c1cc(-c2cccnc2)cnc1N` [I-A-561] was 100 to 1000 nM; that for `Nc1ncc(-c2ccc(N3CCNCC3)cc2)cc1-c1nc2cnccc2n1-c1cccc(F)c1F` [I-D-23] was ≤ 100 nM.
For the compound `Nc1ncc(-c2cnn(C3CNC3)c2)cc1-c1nnnn1-c1cccc(Cl)c1F` [I-A-650], the Ki is ≤ 100 nM.
In the case of `Cc1ccc(Cl)cc1-n1nnnc1-c1cc(-c2ccc(CN(C)C)cc2)cnc1N` [I-A-579], the inhibition constant (Ki) lay within 100 to 1000 nM.
The same measure for `Nc1ncc(-c2cnn(C3CCNCC3)c2)cc1-c1nnnn1-c1cccc(F)c1F` [I-A-370]: ≤ 100 nM; for `COC(=O)c1ccc(-c2cnc(N)c(-c3nnnn3-c3cccc(F)c3F)c2)cc1` [I-A-316]: 100 to 1000 nM; for `CC(=O)Nc1ccc(-c2cnc(N)c(-c3nc4cnccc4n3-c3cccc(F)c3F)c2)cc1` [I-D-13]: ≤ 100 nM.
The same measure for `CC(C)OC(=O)N1CC=C(c2cnc(N)c(-c3nnnn3-c3cccc(F)c3F)c2)CC1` [I-A-508]: ≤ 100 nM; for `COc1ccc(-c2cnc(N)c(-c3nncn3-c3cccc(Cl)c3Cl)c2)cc1` [I-A-69]: 100 to 1000 nM.
The same measure for `CC1CN(Cc2ccc(-c3cnc(N)c(-c4nnnn4-c4cccc(Cl)c4Cl)c3)cc2)CC(C)O1` (stereo not drawn) [I-A-103]: 100 to 1000 nM; for `Nc1ncc(-c2cc(O)c(F)c(F)c2)cc1-c1nnnn1-c1cccc(F)c1F` [I-A-291]: 100 to 1000 nM.
For `CN1CCN(c2ccc(-c3cnc(N)c(-c4nncn4-c4cccc(F)c4F)n3)cc2)CC1` [I-A-7], the inhibition constant Ki was ≤ 100 nM.
The same measure for `CN(C)Cc1ccc(-c2cnc(N)c(-c3nnnn3-c3c(F)cccc3F)c2)cc1` [I-A-619]: ≤ 100 nM; for `Nc1ncc(-c2cn(C3CCNCC3)nn2)cc1-c1nnnn1-c1cccc(F)c1F` [I-A-483, 3-(1-(2,3-Difluorophenyl)-1H-tetrazol-5-yl)-5-(1-(piperidin-4-yl)-1H-1,2,3-triazol-4-yl)pyridin-2-amine]: ≤ 100 nM.
Compound `CC(=O)Nc1ccc(-c2cnc(N)c(-c3nnnn3-c3c(F)ccc(F)c3Cl)c2)cc1` [I-A-614] showed an inhibition constant (Ki) of 100 to 1000 nM.
The same measure for `Nc1ncc(-c2ccc(CN3CCCC3)c([N+](=O)[O-])c2)cc1-c1nnnn1-c1cccc(F)c1F` [I-A-340]: ≤ 100 nM.
The same measure for `Nc1ncc(-c2cnn(CCN3CCCC3)c2)cc1-c1nnnn1-c1cccc(F)c1F` [I-A-407]: ≤ 100 nM; for `Nc1ncc(-c2ccc(NC(=O)N3CCCC3)cc2)cc1-c1nnnn1-c1cccc(F)c1F` [I-A-276]: ≤ 100 nM.
As for `CCCN1CCC(n2cc(-c3cnc(N)c(-c4nnnn4-c4cccc(F)c4F)c3)cn2)CC1` [I-A-461], the Ki was ≤ 100 nM.
The value for `Nc1ncc(-c2cccc(NC(=O)N3CCCC3)c2)cc1-c1nnnn1-c1cccc(F)c1F` [I-A-269] was 100 to 1000 nM.
The value for `Nc1ncc(-c2ccc(CN3CCC[C@@H]3CN3CCCC3)cc2)cc1-c1nnnn1-c1cccc(Cl)c1Cl` [I-A-118] was ≤ 100 nM; that for `Nc1ncc(-c2ccccn2)cc1-c1nnnn1-c1cccc(F)c1F` [I-A-493] was 100 to 1000 nM.
With `Nc1ncc(-c2cnn([C@@H]3CCCNC3)c2)cc1-c1nnnn1-c1cccc(Cl)c1Cl` [I-A-418], the inhibition constant (Ki) is ≤ 100 nM.
The value for `Nc1ncc(-c2cnn(CC3CCNC3)c2)cc1-c1nnnn1-c1cccc(F)c1F` (stereo not drawn) [I-A-501] was ≤ 100 nM; that for `CC(C)(C#N)c1ccc(-c2cnc(N)c(-c3nnnn3-c3cccc(F)c3F)c2)cc1` [I-A-266] was ≤ 100 nM; that for `C[C@@H](C(=O)N1CC=C(c2cnc(N)c(-c3nnnn3-c3cccc(F)c3F)c2)CC1)N1CCCC1=O` [I-A-517] was 100 to 1000 nM.
In the case of `CCCN1CCc2cc(-c3cnc(N)c(-c4nnnn4-c4cccc(F)c4F)c3)sc2CC1` [I-A-519], the inhibition constant Ki is ≤ 100 nM.
The same measure for `Nc1ncc(-c2cnn(C3CCCNCC3)c2)cc1-c1nnnn1-c1cccc(Cl)c1Cl` (stereo not drawn) [I-A-429]: ≤ 100 nM; for `CCNC(=O)Nc1nc2cc(OC)c(-c3cnc(N)c(-c4nnnn4-c4cccc(F)c4F)n3)cc2[nH]1` [I-A-55]: 100 to 1000 nM; for `COc1ccc(F)cc1-n1nnnc1-c1cc(-c2ccc(NC(C)=O)cc2)cnc1N` [I-A-585]: 100 to 1000 nM.
The value for `CC(=O)Nc1cc(-c2cnc(N)c(-c3nnnn3-c3cccc(Cl)c3F)c2)ccc1CN1CCCC1` [I-A-398] was ≤ 100 nM; that for `Nc1ncc(-c2cnn([C@@H]3CCCNC3)c2)cc1-c1nnnn1-c1cccc(F)c1F` [I-A-417] was ≤ 100 nM; that for `Cc1nnc(-c2cc(-c3cnn(C4CCNCC4)c3)cnc2N)n1-c1cccc(Cl)c1F` [I-A-454] was 100 to 1000 nM.
For `CN(C)Cc1ccc(-c2cnc(N)c(-c3nnnn3-c3cccc(Cl)c3Cl)c2)cc1` [I-A-79], the Ki was ≤ 100 nM.
Take `Nc1ncc(-c2ccccc2)cc1-c1nnnn1-c1cccc(F)c1F` [I-A-233]: the Ki is ≤ 100 nM.
The value for `CCN1CCC(n2cc(-c3cnc(N)c(-c4nnnn4-c4cccc(F)c4F)c3)cn2)CC1` [I-A-435] was ≤ 100 nM.
